Test results from patent US11642314B2, “Mixtures of branched chain keto acids (BCKA) and method for the production of such mixtures” (Evonik Operations GmbH, priority 2018, dated 2023).

Experiment: Water solubility at 20° C.
Type: physicochemical
Conditions: in water at 20° C.; calcium salts according to b99

For `CCC(C)C(=O)C(=O)O` (stereo not shown) [Keto isoleucine], which solubility is on record?
Its solubility is 24.3 mg/mL.

With `CC(C)CC(=O)C(=O)O` [Keto leucine] as the compound, how does the solubility read?
Its solubility is 11.9 to 12.5 mg/mL.

Which solubility does the source give for `CC(C)C(=O)C(=O)O` [Keto valine] here?
The solubility was 65 to 70 mg/mL.

With `CSCCC(O)C(=O)O` (stereo not drawn) [α-hydroxymethionine] as the compound, how does the solubility read?
The solubility was 52 to 63 mg/mL.
